Measured values reported in patent US20240109914A1, “IMIDAZOTHIAZOLE COMPOUNDS AND ANALOGS THEREOF AND METHODS FOR TREATING NEMATODE INFECTIONS IN PLANTS” (The Governing Council of The University of Toronto, priority 2021, published 2024).
Read-outs that look alike come from different tables or passages of the source.

How the values were obtained:
M. incognita J2 larvae = test: Meloidogyne incognita in vitro larval mobility assay; assay type: in vivo; conditions: 45 μM, 4 days; for Replicate 1 z-score / Replicate 2 z-score: z-score vs untreated DMSO wells; for pest or weed control at 45 µM: Meloidogyne incognita, 96 h
Method: M. incognita (Kofoid & White) Chitwood Race 1 (originally isolated in Maryland) was used for all experiments, and was maintained on pepper (Capsicum annuum L.) cv. PA-136 in a greenhouse as previously described^44. Infective J2 juveniles were collected as described in ref. 45. The microwell dose-response experiments were carried out similarly to previously described protocols^44,46. In brief, 50 μL of deionized water was added to the wells of 96-well polystyrene plates and 0.5 μL of test compound (or DMSO alone) was added to each well. Approximately 35 J2s were then added to each well in 49.5 μL of deionized water. The chemicals were tested at 45 μM, and the final concentration of DMSO in each well was 0.5% (v/v). DMSO alone was added to 3 separate wells. The plates were covered with plastic adhesive strips, and the lids of the plates were sealed with parafilm. The plates were incubated at 25° C. without shaking for 4 days. The percent of worms that were immobile (% immobile) was quantified by counting the number of immobile worms after 4 days of incubation, dividing the number of immobile worms by the total number of worms in the well, and then multiplying by 100. Two replicates were performed for each treatment. The z-score for each treatment was calculated using the mean and standard deviation of the untreated DMSO control wells. The average % immobile value was calculated across the two replicates. A test compound was considered most promising if the z-score was greater than 1.645 in both replicates.

M. chitwoodi J2 larvae = test: Meloidogyne chitwoodi in vitro larval mobility assay; assay type: in vivo; conditions: Meloidogyne chitwoodi, 48 h, 2 days, average of three replicates, read-out: % Immobile
Method: M. chitwoodi race 1 (the strain commonly found in the pacific northwest of the United States) was used for all experiments, and was maintained on tomato plants (Solanum lycopersicum ‘Rutgers’) as previously described^47. The microwell dose-response experiments were carried out similarly to previously described protocols^44,46. […] The chemicals were tested at 45 μM, and the final concentration of DMSO in each well was 0.5% (v/v). The wells were covered with a plastic adhesive strip, and the lids of the plates were sealed with parafilm. The plates were incubated at 25° C. for 2 days. The percent of worms that were immobile (% immobile) was quantified by counting the number of immobile worms after 2 days of incubation, dividing the number of immobile worms by the total number of worms in the well, and then multiplying by 100. […] The average % immobile value was calculated across the three replicates.

M. hapla eggs = test: Meloidogyne hapla in vitro egg hatch assay; assay type: in vivo; conditions: 45 μM; for Number of Hatched Eggs: 8 days at room temperature, about 90 eggs per well, tested once; for Number of Hatched Eggs z-score: 8 days, z-score vs 8 untreated DMSO wells
Method: The M. hapla were originally obtained from a soil sample of muck soil from Ste-Clotilde, Quebec, Canada. Using tweezers, egg masses were carefully removed from root material from infested carrot roots. Eggs were liberated from the egg masses using a mild sodium hypochlorite bleaching protocol, whereby egg masses were bleached with a 10% commercial bleach (sodium hypochlorite) solution for 4 minutes with vigorous shaking, and then washed 5 times with deionized water. 50 μL of deionized water was added to each well of two 96-well polystyrene culture plates, and 0.5 μL of chemical (or DMSO alone) was added to each well. Approximately 90 eggs were added to each well in 49.5 ul of deionized water. The plates were sealed with parafilm and incubated for 8 days at room temperature without shaking in a Tupperware box filled with wet paper towels. After the 8-day incubation, the number of hatched eggs was counted for each treatment and for the untreated controls. Each chemical treatment was tested only once. 8 separate untreated DMSO controls were included in the experiment. The z-score for each treatment was calculated using the mean and standard deviation of the untreated DMSO control wells.

C. elegans = C. elegans dose-response (viability, minimum lethal concentration); assay type: in vivo, Caenorhabditis elegans; conditions: Caenorhabditis elegans, 72 h, L1 worms, 3 days at 20° C.
Method: Forty microliters of an HB101 E. coli bacterial suspension in liquid NGM (nematode growth media—see ref. 42 for the recipe) was added to each well of a 96-well flat-bottom culture plate, after which approximately 25 synchronized L1 worms, in 10 μl of M9 buffer (see ref. 43 for the recipe), were added to each well. The synchronized L1 worms were obtained from an embryo preparation performed the previous day (see ref. 43 for the protocol). For the L1 assays, 0.5 μl of test compound solution (or DMSO alone) was immediately added to the wells using a multichannel pipette; the final DMSO concentration is 1% (v/v). The worms were incubated for 3 days at 20° C. and the number of viable animals was counted.
At least three biological replicates were performed for each dose-response assay. For each biological replicate, two technical replicates were performed and the numbers of viable animals for each technical replicate were combined (i.e. ˜ 50 worms assayed per concentration). The number of viable worms at each concentration was divided by the corresponding DMSO control value to give the “relative viability” for each concentration. The “relative viability” values were then averaged across the biological replicates. Minimum lethal concentration was defined as the lowest concentration at which at least 20% of worms die.

M. incognita = test: Meloidogyne incognita infectivity assay (soil, tomato roots); assay type: in vivo; conditions: Meloidogyne incognita, 1344 h, 45 μM in soil, 8 weeks, eggs per mg root relative to DMSO control, read-out: % effectiveness at inhibiting reproduction of M. incognita
Text: An M. incognita population originally collected from grape (Vitis vinifera) in Parlier, California, was used for all experiments, and they were maintained on tomato plants (Solanum lycopersicum ‘Rutgers’) as previously described^47. Infective J2 juveniles were collected as described in ref. 47.

tomato plants = test: Root mass of tomato plants in the soil infectivity assay; conditions: 45 μM in soil, 8 weeks
Method: For the infectivity assays, 90 grams of soil (1:1 sand:loam mix) was added to each cell of several 6-cell plastic garden packs. The soil was drenched with 18 mL of deionized water containing dissolved test compound or DMSO alone. 2,500 infective J2 juveniles were then added to the soil in 2 mL of deionized water, for a total water volume of 20 mL. […] The DMSO concentration varied from 0.1% to 0.8% (v/v) depending on the stock concentration of the test compound. The highest DMSO concentration was used as the DMSO control. The J2s were incubated in the soil and chemical for 24 hours, after which two- to three-week old tomato seedlings were transplanted into the soil (one plant per cell). Two replicates were performed for each chemical treatment, and four replicates were done for the DMSO controls. The whole experiment was replicated twice, in two different batches on two different days, for a total of four replicates for each test compound treatment, and eight replicates for the DMSO controls. Inoculated plants were grown for 8 weeks in a greenhouse, as described^47, under long-day conditions (16-h photoperiod) with 26/18° C. day/night temperatures. After 8 weeks, the plants were destructively harvested. The tops were removed and discarded, and roots were gently washed with water to remove adhering soil. Eggs were extracted by placing rinsed roots in 0.6% sodium hypochlorite and agitating at 300 rpm for 3 min. Roots were then rinsed over nested 250—and 25.4-μm sieves, with eggs collected from the latter and suspended in water. Roots were dried in a 65° C. oven for at least 24 hours, after which dry roots were weighed. The number of eggs from each plant root was counted on a dissection microscope using a haemocytometer, and the number of eggs per milligram of root was calculated by dividing the total egg number by the mass of the dried root material. An average was taken across the replicates performed on the same day, and then normalized to the DMSO control average. […] An average percent effectiveness value was then calculated across the two different batches carried out on different days.

[1] = average of the two replicates, read-out: Average % Immobile
[2] = replicate 1, read-out: Replicate 1 % Immobile
[3] = replicate 2, read-out: Replicate 2 % Immobile
[4] = lowest concentration at which at least 20% of worms die, read-out: Minimum Lethal Concentration
[5] = same values in ppm, read-out: Minimum Lethal Concentration (ppm)

Row | Compound | Replicate 1 z-score (M. incognita J2 larvae; replicate 1) | Replicate 2 z-score (M. incognita J2 larvae; replicate 2) | pest or weed control at 45 µM (M. incognita J2 larvae; [1]) | pest or weed control at 45 µM (M. incognita J2 larvae; [2]) | pest or weed control at 45 µM (M. incognita J2 larvae; [3]) | pest or weed control at 45 µM (M. chitwoodi J2 larvae) | Number of Hatched Eggs (M. hapla eggs) | Number of Hatched Eggs z-score (M. hapla eggs) | minimal effective concentration (C. elegans; [4]) | minimal effective concentration (C. elegans; [5]) | pest or weed control at 45 µM (M. incognita) | Normalized root mass (relative to DMSO control) (tomato plants)
1 | O=C(NCCc1ncc(C(F)(F)F)cc1Cl)c1ccccc1C(F)(F)F [Fluopyram, fluopyram, reference compound] | [14.82] | [21.99] | 100% | 100% | 100% | 100% | 0 | [4.63] | – | – | – | –
2 | Cc1c(-c2ccccc2)nc2sccn12 [I-1] | – | – | – | – | – | 48.2% | – | – | > 100 µM | > 21.4 µg/mL | – | –
3 | Fc1cccc(-c2cn3ccsc3n2)c1 [I-14] | [15.43] | [13.11] | ≥ 75% | 98.2% | 82.2% | – | 1 | [4.30] | 100 µM | 21.8 µg/mL | 17.6% | 1.28
4 | Cc1cn2cc(-c3cccc(F)c3)nc2s1 [I-17] | – | – | – | – | – | – | 3 | [3.64] | 100 µM | 23.2 µg/mL | 21.8% | 1.30
5 | Cc1cn2cc(-c3ccccc3F)nc2s1 [I-21] | [5.78] | [5.62] | 45.9% | 51% | 40.8% | – | – | – | 50 µM | 11.6 µg/mL | 24.4% | 1.24
6 | Cc1c(-c2ccc(Cl)cc2)nc2sccn12 [I-22] | [7.55] | [4.26] | 46.5% | 59.6% | 33.3% | > 75% | 1 | [4.30] | 12.5 µM | 3.1 µg/mL | – | –
7 | Cc1c(-c2cccc(Cl)c2)nc2sccn12 [I-24] | [1.68] | [4.78] | 33.6% | 30.9% | 36.2% | – | – | – | 100 µM | 24.9 µg/mL | 23.6% | 1.34
8 | Cc1csc2nc(-c3cccc(Cl)c3)cn12 [I-25] | – | – | – | – | – | – | 4 | [3.31] | > 100 µM | > 24.9 µg/mL | 24.6% | 1.27
9 | Cc1cn2cc(-c3cccc(Cl)c3)nc2s1 [I-26] | [6.47] | [1.92] | 37.4% | 54.4% | 20.4% | – | – | – | 25 µM | 6.2 µg/mL | 0% | 1.43
10 | Clc1ccccc1-c1cn2ccsc2n1 [I-27] | [6.81] | [3.28] | 42% | 56% | 27.9% | – | 4 | [3.31] | 100 µM | 23.5 µg/mL | 0% | 1.42
11 | Cc1csc2nc(-c3ccccc3Cl)cn12 [I-29] | – | – | – | – | – | – | 4 | [3.31] | 100 µM | 24.9 µg/mL | 15% | 1.14
12 | Cc1cn2cc(-c3ccccc3Cl)nc2s1 [I-30] | [8.34] | [5.62] | 52.1% | 63.5% | 40.8% | – | – | – | > 100 µM | > 24.9 µg/mL | 16% | 1.30
13 | Clc1ccc(-c2cn3ccsc3n2)cc1Cl [I-31] | [2.33] | [4.78] | 35.1% | 34.1% | 36.2% | – | 1 | [4.30] | 6.25 µM | 1.7 µg/mL | 18.1% | 1.25
14 | Cc1c(-c2cccc(Br)c2)nc2sccn12 [I-35] | – | – | – | – | – | – | 2 | [3.97] | > 50 µM | 14.7 µg/mL | 10.2% | 1.26
15 | Cc1cn2cc(-c3ccccc3Br)nc2s1 [I-41] | [3.31] | [6.62] | 42.6% | 38.9% | 46.3% | – | – | – | > 100 µM | > 29.3 µg/mL | 6.6% | 1.18
16 | c1cncc(-c2cn3ccsc3n2)c1 [I-45] | [1.92] | [3.20] | 29.8% | 32.1% | 27.4% | 13.8% | – | – | > 100 µM | > 20.1 µg/mL | – | –
17 | Clc1ccc(-c2cn3ccoc3n2)cc1 [I-47, 6-(4-chlorophenyl)imidazo[2,1-b]oxazole] | [14.96] | [15.52] | – | 95.9% | 95.6% | 62.7% | 1 | [4.30] | 50 µM | 10.9 µg/mL | – | –
